Results published in ChEMBL document CHEMBL1144945, “Development of progesterone receptor antagonists from 1,2-dihydrochromeno[3,4-f]quinoline agonist pharmacophore” (Bioorg Med Chem Lett, 2003).
Activity calls are given as the source filed them.

How the values were obtained:
Progesterone receptor [1] = target: T1, Progesterone receptor (Homo sapiens, UniProt P06401); experiment: Binding towards human progesterone receptor
T1 sequence (P06401 whole entry): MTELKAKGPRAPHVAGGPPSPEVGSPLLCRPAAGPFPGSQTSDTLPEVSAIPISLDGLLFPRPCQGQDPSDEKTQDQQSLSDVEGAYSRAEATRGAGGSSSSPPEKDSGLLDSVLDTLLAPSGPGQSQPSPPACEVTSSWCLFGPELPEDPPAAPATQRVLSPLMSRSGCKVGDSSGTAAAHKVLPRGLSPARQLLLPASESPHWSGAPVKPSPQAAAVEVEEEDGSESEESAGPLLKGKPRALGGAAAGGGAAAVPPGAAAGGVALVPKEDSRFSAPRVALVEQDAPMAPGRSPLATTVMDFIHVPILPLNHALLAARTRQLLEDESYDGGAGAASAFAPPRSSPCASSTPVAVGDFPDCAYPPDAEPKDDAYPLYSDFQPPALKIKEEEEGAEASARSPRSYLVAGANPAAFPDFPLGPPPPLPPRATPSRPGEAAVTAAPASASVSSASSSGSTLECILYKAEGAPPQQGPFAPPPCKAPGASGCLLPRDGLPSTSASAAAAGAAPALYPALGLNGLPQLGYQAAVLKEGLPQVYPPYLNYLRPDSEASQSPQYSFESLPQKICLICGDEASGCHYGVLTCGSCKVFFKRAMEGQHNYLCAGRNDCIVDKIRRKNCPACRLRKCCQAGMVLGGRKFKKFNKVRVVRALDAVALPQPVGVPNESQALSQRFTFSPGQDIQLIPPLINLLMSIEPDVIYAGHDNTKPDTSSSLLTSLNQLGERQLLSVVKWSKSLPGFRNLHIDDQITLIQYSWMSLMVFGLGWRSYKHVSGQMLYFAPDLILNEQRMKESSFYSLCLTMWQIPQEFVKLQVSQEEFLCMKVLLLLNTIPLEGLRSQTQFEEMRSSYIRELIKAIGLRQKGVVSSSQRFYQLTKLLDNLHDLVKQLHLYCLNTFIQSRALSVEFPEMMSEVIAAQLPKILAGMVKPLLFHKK

[2] = target: T2, Progesterone receptor (Homo sapiens) (UniProt P06401); experiment: Antagonist efficacy for human progesterone in CV-1 cells; type: functional, cell-based
T2 sequence (whole entry): T1 sequence (P06401 whole entry)

Progesterone receptor [3] = target: T1, Progesterone receptor; experiment: Effective concentration for antagonistic activity towards human progesterone in CV-1 cells; type: functional, cell-based
[4] = target: T3, Mineralocorticoid receptor (Homo sapiens, UniProt P08235); experiment: Inhibition of antagonist activity towards mineralocorticoid receptor (hMR); Not active; type: functional
T3 sequence (P08235 whole entry): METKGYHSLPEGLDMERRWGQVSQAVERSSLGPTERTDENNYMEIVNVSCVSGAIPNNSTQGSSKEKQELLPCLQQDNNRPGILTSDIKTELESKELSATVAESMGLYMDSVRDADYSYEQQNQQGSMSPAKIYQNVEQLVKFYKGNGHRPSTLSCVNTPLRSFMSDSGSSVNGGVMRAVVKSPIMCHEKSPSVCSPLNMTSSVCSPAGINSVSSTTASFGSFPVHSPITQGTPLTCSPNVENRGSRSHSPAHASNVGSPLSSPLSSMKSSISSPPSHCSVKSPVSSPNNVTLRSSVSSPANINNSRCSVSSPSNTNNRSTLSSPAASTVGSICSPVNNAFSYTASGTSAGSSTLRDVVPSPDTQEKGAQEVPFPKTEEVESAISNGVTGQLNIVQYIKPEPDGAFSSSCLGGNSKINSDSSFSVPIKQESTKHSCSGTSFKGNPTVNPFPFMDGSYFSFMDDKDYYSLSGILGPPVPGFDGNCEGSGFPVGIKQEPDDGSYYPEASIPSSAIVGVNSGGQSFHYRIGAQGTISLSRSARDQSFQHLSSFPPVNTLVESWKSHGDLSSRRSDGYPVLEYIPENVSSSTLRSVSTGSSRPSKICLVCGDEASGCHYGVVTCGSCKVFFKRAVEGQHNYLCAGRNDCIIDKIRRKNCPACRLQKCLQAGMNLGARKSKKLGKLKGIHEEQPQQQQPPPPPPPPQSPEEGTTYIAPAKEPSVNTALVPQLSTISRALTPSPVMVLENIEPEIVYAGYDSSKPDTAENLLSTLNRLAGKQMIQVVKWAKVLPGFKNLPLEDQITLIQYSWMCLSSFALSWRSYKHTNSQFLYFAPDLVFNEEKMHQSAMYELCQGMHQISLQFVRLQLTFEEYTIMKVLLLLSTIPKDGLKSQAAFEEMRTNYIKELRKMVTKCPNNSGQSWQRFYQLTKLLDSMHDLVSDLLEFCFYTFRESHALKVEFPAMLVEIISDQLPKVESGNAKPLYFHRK

[5] = target: T4, Mineralocorticoid receptor (Homo sapiens) (UniProt P08235); experiment: Antagonist efficacy for mineralocorticoid receptor (hMR); Not active; type: functional
T4 sequence (whole entry): T3 sequence (P08235 whole entry)

Glucocorticoid receptor [6] = target: T5, Glucocorticoid receptor (Homo sapiens, UniProt P04150); experiment: Inhibition of antagonist activity towards glucocorticoid receptor; not active; type: functional
T5 sequence (P04150 whole entry): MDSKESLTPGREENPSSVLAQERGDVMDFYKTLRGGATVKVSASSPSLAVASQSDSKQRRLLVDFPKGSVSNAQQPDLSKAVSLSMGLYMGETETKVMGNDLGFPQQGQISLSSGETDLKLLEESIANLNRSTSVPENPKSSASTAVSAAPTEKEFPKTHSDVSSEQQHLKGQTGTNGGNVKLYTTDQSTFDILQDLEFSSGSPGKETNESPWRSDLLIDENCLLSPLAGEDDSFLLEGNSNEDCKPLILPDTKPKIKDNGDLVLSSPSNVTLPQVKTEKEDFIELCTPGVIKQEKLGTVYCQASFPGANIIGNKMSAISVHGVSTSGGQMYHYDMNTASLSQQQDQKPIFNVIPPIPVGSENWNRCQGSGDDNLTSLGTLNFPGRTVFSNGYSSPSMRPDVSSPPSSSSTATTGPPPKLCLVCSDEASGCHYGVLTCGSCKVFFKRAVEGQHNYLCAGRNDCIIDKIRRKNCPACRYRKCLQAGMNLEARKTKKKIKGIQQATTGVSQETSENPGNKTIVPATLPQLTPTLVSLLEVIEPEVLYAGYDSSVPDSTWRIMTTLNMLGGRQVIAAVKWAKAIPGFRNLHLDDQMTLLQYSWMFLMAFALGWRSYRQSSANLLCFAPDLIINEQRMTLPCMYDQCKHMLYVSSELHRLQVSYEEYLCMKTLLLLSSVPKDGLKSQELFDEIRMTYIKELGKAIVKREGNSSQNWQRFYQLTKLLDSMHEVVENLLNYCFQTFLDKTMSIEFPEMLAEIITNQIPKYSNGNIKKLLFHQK

Androgen receptor = target: T6, Androgen receptor (Homo sapiens, UniProt P10275)
T6 sequence (P10275 whole entry): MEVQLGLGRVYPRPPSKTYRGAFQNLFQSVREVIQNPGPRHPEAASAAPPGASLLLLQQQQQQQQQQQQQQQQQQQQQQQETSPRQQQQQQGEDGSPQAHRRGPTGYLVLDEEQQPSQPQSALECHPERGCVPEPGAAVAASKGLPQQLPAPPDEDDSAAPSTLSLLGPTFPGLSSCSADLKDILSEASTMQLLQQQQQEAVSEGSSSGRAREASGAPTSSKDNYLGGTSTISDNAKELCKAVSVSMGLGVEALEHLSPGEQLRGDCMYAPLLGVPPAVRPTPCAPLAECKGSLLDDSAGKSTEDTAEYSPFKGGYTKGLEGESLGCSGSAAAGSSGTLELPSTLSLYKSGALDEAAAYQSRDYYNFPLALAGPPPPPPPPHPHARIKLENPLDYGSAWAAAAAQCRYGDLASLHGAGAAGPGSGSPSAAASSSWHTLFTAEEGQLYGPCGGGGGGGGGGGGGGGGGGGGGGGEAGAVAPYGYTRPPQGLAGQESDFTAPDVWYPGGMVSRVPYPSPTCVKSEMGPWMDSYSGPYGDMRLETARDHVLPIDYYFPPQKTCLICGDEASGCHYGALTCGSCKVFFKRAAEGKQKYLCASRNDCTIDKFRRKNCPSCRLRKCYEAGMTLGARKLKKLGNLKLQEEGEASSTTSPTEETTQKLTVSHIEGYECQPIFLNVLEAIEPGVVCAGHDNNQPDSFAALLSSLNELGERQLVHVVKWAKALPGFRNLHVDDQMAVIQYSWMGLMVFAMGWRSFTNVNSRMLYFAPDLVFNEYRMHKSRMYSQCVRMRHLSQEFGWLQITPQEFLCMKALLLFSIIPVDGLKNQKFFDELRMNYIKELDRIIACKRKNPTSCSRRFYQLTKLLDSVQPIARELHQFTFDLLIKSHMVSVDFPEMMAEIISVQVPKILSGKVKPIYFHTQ
Description: Inhibition of antagonist activity towards Androgen receptor

[7] = target: T7, Glucocorticoid receptor (Homo sapiens) (UniProt P04150); experiment: Antagonist efficacy for glucocorticoid receptor; not active; type: functional
T7 sequence (whole entry): T5 sequence (P04150 whole entry)

[8] = target: T8, Estrogen receptor (Homo sapiens) (UniProt Q92731+P03372); experiment: Antagonist efficacy for Estrogen receptor; Not active; type: functional
[9] = target: T8, Estrogen receptor (Homo sapiens); experiment: Antagonist efficacy for Estrogen receptor; type: functional
[10] = target: T2, Progesterone receptor (Homo sapiens); experiment: Antagonist efficacy for human progesterone in T47D human breast cancer cell; type: functional, cell-based
[11] = target: T2, Progesterone receptor (Homo sapiens); experiment: Agonist efficacy for human progesterone in T47D human breast cancer cell; type: functional, cell-based
Progesterone receptor [12] = target: T1, Progesterone receptor; experiment: Effective concentration for human progesterone in T47D human breast cancer cell; type: cell-based, Cancer cell lines
Progesterone receptor [13] = target: T1, Progesterone receptor; experiment: Inhibition of human progesterone in T47D human breast cancer cell; type: cell-based
Progesterone receptor [14] = target: T1, Progesterone receptor
Description: Inhibition of human progesterone receptor activation in T47D human breast cancer cell.

Progesterone receptor [15] = target: T1, Progesterone receptor; remark: listed apart in the source
Description: Antagonistic activity at human progesterone receptor in CV-1 cells.

Progesterone receptor [16] = target: T1, Progesterone receptor; remark: listed apart in the source
Description: Binding affinity at human progesterone receptor.

Progesterone receptor [17] = target: T1, Progesterone receptor; remark: listed apart in the source
Glucocorticoid receptor [18] = target: T5, Glucocorticoid receptor; experiment: Inhibition of antagonist activity towards glucocorticoid receptor; type: functional
[19] = target: T3, Mineralocorticoid receptor; experiment: Inhibition of antagonist activity towards mineralocorticoid receptor (hMR); type: functional
[20] = target: T4, Mineralocorticoid receptor (Homo sapiens); experiment: Antagonist efficacy for mineralocorticoid receptor (hMR); type: functional
[21] = target: T2, Progesterone receptor (Homo sapiens); experiment: Agonist efficacy for human progesterone receptor in T47D human breast cancer cell; not active (<20% efficacy and/or >10 mM potency); type: functional, cell-based
[22] = target: T2, Progesterone receptor (Homo sapiens); experiment: Effective concentration against human progesterone receptor in T47D human breast cancer cell; not active (<20% efficacy and/or >10 mM potency); type: cell-based; details: Cancer cell lines
Progesterone receptor [23] = target: T1, Progesterone receptor; experiment: Effective concentration for human progesterone receptor in T47D human breast cancer cell; not active (<20% efficacy and/or >10 mM potency); details: cancer cell lines

Structure (SMILES)	IC50 (Androgen receptor)	Efficacy [8]	IC50 (Progesterone receptor [14])	EC50 (Progesterone receptor [15])	Ki (Progesterone receptor [16])	EC50 (Progesterone receptor [17])	other results
CC1=CC(C)(C)Nc2ccc3c(c21)COc1c(Br)cc(Br)cc1-3							Ki (Progesterone receptor [1]): > 1000 nM; Efficacy [2]: 86%; EC50 (Progesterone receptor [3]): 1870 nM
CC1=CC(C)(C)Nc2ccc3c(c21)COc1ccc(Cl)cc1-3	788 nM	inactive					IC50 [4]: Not Active; Efficacy [5]: inactive; IC50 (Glucocorticoid receptor [6]): Not Active; Efficacy [7]: inactive
CC#C[C@]1(O)CC[C@H]2[C@@H]3CCC4=CC(=O)CCC4=C3[C@@H](c3ccc(N(C)C)cc3)C[C@@]21C							Efficacy [9]: 59%
COc1ccc2c(c1)OCc1c-2ccc2c1C(C)=CC(C)(C)N2							Ki (Progesterone receptor [1]): 357 nM; Efficacy [2]: 85%; Efficacy [10]: 83%; Efficacy [11]: 24%; EC50 (Progesterone receptor [12]): > 1000 nM; IC50 (Progesterone receptor [13]): 514 nM; EC50 (Progesterone receptor [3]): 193 nM
CC1=CC(C)(C)Nc2ccc3c(c21)COc1c(F)cccc1-3			368 nM	118 nM	248 nM	> 1000 nM	
CC1=CC(C)(C)Nc2ccc3c(c21)COc1c(F)cc(C#N)cc1-3	60 nM	inactive	149 nM	16.7 nM	4.5 nM	86 nM	IC50 (Glucocorticoid receptor [18]): 194 nM; IC50 [4]: Not Active; Efficacy [5]: inactive
CC1=CC(C)(C)Nc2ccc3c(c21)COc1ccc(F)cc1-3	1250 nM	inactive					IC50 (Glucocorticoid receptor [6]): Not Active; Efficacy [7]: inactive; IC50 [19]: 3160 nM; Efficacy [20]: 30%
CN(C)c1ccc([C@H]2C[C@]3(C)[C@@H](CC[C@]3(O)CCCO)[C@@H]3CCC4=CC(=O)CCC4=C32)cc1 [ONAPRISTONE]							Activity [21]: inactive; Activity [22]: inactive; IC50 [19]: 470 nM; Efficacy [20]: 49%
COc1cc(Br)cc2c1OCc1c-2ccc2c1C(C)=CC(C)(C)N2				43 nM	476 nM		
CC1=CC(C)(C)Nc2ccc3c(c21)COc1ccc(-c2ccccc2)cc1-3			811 nM	2030 nM	> 1000 nM		Efficacy [21]: inactive; EC50 (Progesterone receptor [23]): Not Active
CC1CC(C)(C)Nc2ccc3c(c21)COc1c-3cc(F)cc1[N+](=O)[O-] (configuration not stated)			483 nM	781 nM	370 nM		Activity [21]: inactive; Activity [22]: inactive
CC1=CC(C)(C)Nc2ccc3c(c21)COc1ccc(Br)cc1-3	395 nM	inactive	485 nM	45 nM	15 nM	552 nM	IC50 (Glucocorticoid receptor [18]): 1930 nM; IC50 [4]: Not Active; Efficacy [5]: inactive
CC1=CC(C)(C)Nc2ccc3c(c21)COc1ccc([N+](=O)[O-])cc1-3	60 nM	inactive	152 nM	28.6 nM	6.8 nM	257 nM	IC50 (Glucocorticoid receptor [18]): 689 nM; IC50 [19]: 1890 nM; Efficacy [20]: 79%
CC1=CC(C)(C)Nc2ccc3c(c21)COc1c(C)cc(Cl)cc1-3			374 nM	178 nM	205 nM		
COc1ccc2c(c1)-c1ccc3c(c1CO2)C(C)=CC(C)(C)N3			187 nM	170 nM	86 nM	> 1000 nM	
Cc1cc(F)cc2c1OCc1c-2ccc2c1C(C)CC(C)(C)N2 (configuration not stated)			499 nM	637 nM	391 nM		Activity [21]: inactive; Activity [22]: inactive
